What was measured:
[1] = molecular target: T1, human FPRL2 (Homo sapiens, UniProt P25089); experiment: Intracellular calcium measurements (FLIPR), agonistic activity in HEK293-hFPRL2-Gα16 cells; format: cell-based; details: Fluo-4 calcium FLIPR, normalized to GLY14-Humanin 100 nM
T1 construct: expressed in transfected cells; host or cells: HEK293 (HEK293-hFPRL2-Gα16)
T1 sequence (P25089 1-353): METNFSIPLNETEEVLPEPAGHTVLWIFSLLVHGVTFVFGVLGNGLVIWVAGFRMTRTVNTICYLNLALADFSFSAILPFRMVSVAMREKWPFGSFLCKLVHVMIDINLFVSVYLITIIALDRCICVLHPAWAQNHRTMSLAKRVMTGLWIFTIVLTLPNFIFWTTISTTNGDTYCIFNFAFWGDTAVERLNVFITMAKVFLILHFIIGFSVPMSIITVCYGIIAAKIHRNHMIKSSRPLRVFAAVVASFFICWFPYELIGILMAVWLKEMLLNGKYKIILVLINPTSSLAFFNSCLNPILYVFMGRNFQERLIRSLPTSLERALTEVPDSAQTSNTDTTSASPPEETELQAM
Method in brief: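 Peak values after baseline subtraction are expressed relative to 100 nM Gly14-Humanin; compounds diluted in assay buffer from 10 mM DMSO stocks.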

[2] = molecular target: T2, human ALX receptor (Homo sapiens, UniProt P25090); experiment: Intracellular calcium measurements (FLIPR), agonistic activity in HEK293-hALXR-Gα16 cells; format: cell-based; details: Fluo-4 calcium FLIPR, normalized to WKYMVm 10 nM
T2 construct: expressed in transfected cells; host or cells: HEK293 (HEK293-hALXR-Gα16)
T2 sequence (P25090 1-351): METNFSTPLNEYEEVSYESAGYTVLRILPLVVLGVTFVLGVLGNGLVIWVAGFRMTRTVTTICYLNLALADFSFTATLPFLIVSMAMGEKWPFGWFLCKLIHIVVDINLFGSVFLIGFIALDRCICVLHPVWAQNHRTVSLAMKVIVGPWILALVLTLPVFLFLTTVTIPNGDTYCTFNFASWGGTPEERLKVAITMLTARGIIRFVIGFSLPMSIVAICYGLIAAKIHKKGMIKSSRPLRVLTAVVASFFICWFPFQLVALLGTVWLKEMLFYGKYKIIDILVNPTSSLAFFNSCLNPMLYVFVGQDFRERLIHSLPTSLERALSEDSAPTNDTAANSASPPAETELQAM
Method in brief: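 HEK293 cells expressing hALXR and Gα16 were loaded with 1 μM Fluo-4 AM and 20 mM HEPES for 60 min at 37°C, then exposed to serially diluted compound. FLIPR fluorescence was read at ex 488/em 540 nm. Baseline-subtracted peak responses were normalized to 10 nM WKYMVm.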

Row | Structure (SMILES) | EC50 [1] [µM] | EC50 [2] [µM]
1 | Cc1ccc(NC(=O)C2C(C(=O)NCCCCN3CCCC3)C3C=CC2C32CC2)cn1 (stereo not drawn) [Example 253, (5R*)—N^5-(2-Methyl-pyridin-5-yl)-(6R*)—N^6-(4-pyrrolidin-1-yl-butyl)-(4S*,7R*)-[4,7-ethenylene-spiro[2.4]heptane]-5,6-dicarboxamide] | 1.77 | 0.131
2 | NC(=O)CCNC(=O)[C@H]1[C@H](C(=O)Nc2ccc(Br)nc2)[C@@H]2CC[C@H]1C21CC1 [Example 278, (5R)—N^5-(2-Bromopyrid-5-yl)-(6R)—N^6-(3-amino-3-oxopropyl)-(4S,7R)-[4,7-ethylene-spiro[2.4]heptane]-5,6-dicarboxamide] | > 25 | 0.0079
3 | NC(=O)CCNC(=O)[C@H]1[C@H](C(=O)NCc2cnc(Br)s2)[C@@H]2C=C[C@H]1C21CC1 [Example 283, (5R)—N^5-(2-Bromothiazol-5-yl-methyl)-(6R)—N^6-(3-amino-3-oxopropyl)-(4S,7R)-[4,7-ethenylene-spiro[2.4]heptane]-5,6-dicarboxamide] | > 25 | 0.884
4 | O=C(NCCCCN1CCCC1)[C@H]1[C@H](C(=O)NCc2ccc(Br)cc2)[C@@H]2C=C[C@H]1C21CC1 [Example 286, (5R)—N^5-(4-Bromophenyl-methyl)-(6R)—N^6-(4-pyrrolidino-butyl)-(4S,7R)-[4,7-ethenylene-spiro[2.4]heptane]-5,6-dicarboxamide] | 0.032 | 0.032
5 | COc1ccc(NC(=O)[C@H]2[C@H](C(=O)NCCC(=O)O)[C@H]3C=C[C@@H]2C32CC2)cc1 [Example 287, (5R)—N^5-(4-Methoxyphenyl)-(6R)—N^6-(3-hydroxyl-3-oxopropyl)-(4S,7R)-[4,7-ethenylene-spiro[2.4]heptane]-5,6-dicarboxamide] | > 25 | 0.516
6 | COc1ccc(NC(=O)C2C(C(=O)NCCC(N)=O)C3C=CC2C32CC2)cc1 [Example 290, (5R)—N^5-(4-Methoxyphenyl)-(6R)—N^6-(3-amino-3-oxopropyl)-(4S,7R)-[4,7-ethenylene-spiro[2.4]heptane]-5,6-dicarboxamide] | 1.44 | 0.032
7 | NC(=O)CCNC(=O)[C@H]1[C@H](C(=O)NCc2ccc(Br)cc2)[C@@H]2CC[C@H]1C21CC1 [Example 291, (5R)—N^5-(4-Bromophenyl-methyl)-(6R)—N^6-(3-amino-3-oxopropyl)-(4S,7R)-[4,7-ethylene-spiro[2.4]heptane]-5,6-dicarboxamide] | > 25 | 0.113
8 | NC(=O)CCNC(=O)[C@H]1[C@H](C(=O)NCc2ccc(Br)cc2F)[C@@H]2CC[C@H]1C21CC1 [Example 292, (5R)—N^5-(4-Bromo-2-fluorophenyl-methyl)-(6R)—N^6-(3-amino-3-oxopropyl)-(4S,7R)-[4,7-ethylene-spiro[2.4]heptane]-5,6-dicarboxamide] | 0.661 | 0.071
9 | Cc1cc(Br)ccc1NC(=O)[C@H]1[C@H](C(=O)NCCCCN2CCCC2)[C@H]2C=C[C@@H]1C21CC1 [Example 296, (5R)—N^5-(4-Bromo-2-methylphenyl)-(6R)—N^6-(4-pyrrolidino-butyl)-(4S,7R)-[4,7-ethenylene-spiro[2.4]heptane]-5,6-dicarboxamide] | 0.193 | 0.275
10 | O=C(NCCCCN1CCCC1)[C@H]1[C@H](C(=O)Nc2ccc(Br)c(Cl)c2)[C@@H]2C=C[C@H]1C21CC1 [Example 297, (5R)—N^5-(4-Bromo-3-chlorophenyl)-(6R)—N^6-(4-pyrrolidino-butyl)-(4S,7R)-[4,7-ethenylene-spiro[2.4]heptane]-5,6-dicarboxamide] | 0.028 | 0.367

Now from value to compound:

Row | EC50 [1] [µM] | EC50 [2] [µM] | Structure (SMILES)
11 | 0.173 | 0.0011 | O=C(NCCCCN1CCCC1)[C@H]1[C@H](C(=O)Nc2ccc(Br)nc2)[C@@H]2C=C[C@H]1C21CC1 [Example 258, (5R)—N^5-(2-Bromo-pyridin-5-yl)-(6R)—N^6-(4-pyrrolidin-1-yl-butyl)-(4S,7R)-[4,7-ethenylene-spiro[2.4]heptane]-5,6-dicarboxamide]
12 | 0.299 | 0.121 | CCN(CC)CCCCNC(=O)C1C(C(=O)NCc2ccc(Br)cc2)C2C=CC1C21CC1 (stereo not drawn) [Example 272, (5R*)—N^5-(4-Bromophenyl-methyl)-(6R*)—N^6-(4-diethylamino-butyl)-(4S*,7R*)-[4,7-ethenylene-spiro[2.4]heptane]-5,6-dicarboxamide]
13 | 0.062 | 0.0013 | O=C(NCCCCN1CCCC1)[C@H]1[C@H](C(=O)Nc2ccc(Br)nc2)[C@@H]2CC[C@H]1C21CC1 [Example 279, (5R)—N^5-(2-Bromopyrid-5-yl)-(6R)—N^6-(4-pyrrolidino-butyl)-(4S,7R)-[4,7-ethylene-spiro[2.4]heptane]-5,6-dicarboxamide]
14 | > 25 | 0.258 | NC(=O)CCNC(=O)[C@H]1[C@H](C(=O)Nc2ccc(Br)cn2)[C@@H]2C=C[C@H]1C21CC1 [Example 280, (5R)—N^5-(5-Bromopyrid-2-yl)-(6R)—N^6-(3-amino-3-oxopropyl)-(4S,7R)-[4,7-ethenylene-spiro[2.4]heptane]-5,6-dicarboxamide]
15 | > 25 | 0.031 | NC(=O)CCNC(=O)[C@H]1[C@H](C(=O)Nc2ccc(Cl)nc2)[C@@H]2C=C[C@H]1C21CC1 [Example 281, (5R)—N^5-(2-Chloropyrid-5-yl)-(6R)—N^6-(3-amino-3-oxopropyl)-(4S,7R)-[4,7-ethenylene-spiro[2.4]heptane]-5,6-dicarboxamide]
16 | > 25 | 0.146 | NC(=O)CCNC(=O)[C@H]1[C@H](C(=O)NCc2ccc(Br)cc2F)[C@@H]2C=C[C@H]1C21CC1 [Example 282, (5R)—N^5-(4-Bromo-2-fluorophenyl-methyl)-(6R)—N^6-(3-amino-3-oxopropyl)-(4S,7R)-[4,7-ethenylene-spiro[2.4]heptane]-5,6-dicarboxamide]
17 | 0.264 | 0.013 | O=C(NCCCCN1CCCC1)[C@H]1[C@H](C(=O)NCc2ccc(Br)cc2F)[C@@H]2C=C[C@H]1C21CC1 [Example 284, (5R)—N^5-(4-Bromo-2-fluorophenyl-methyl)-(6R)—N^6-(4-pyrrolidino-butyl)-(4S,7R)-[4,7-ethenylene-spiro[2.4]heptane]-5,6-dicarboxamide]
18 | 0.224 | 0.009 | COc1ccc(NC(=O)[C@H]2[C@H](C(=O)NCCCCN3CCCC3)[C@H]3C=C[C@@H]2C32CC2)cc1 [Example 285, (5R)—N^5-(4-Methoxyphenyl)-(6R)—N^6-(4-pyrrolidino-butyl)-(4S,7R)-[4,7-ethenylene-spiro[2.4]heptane]-5,6-dicarboxamide]
19 | 0.033 | 0.00087 | O=C(NCCCCN1CCCC1)[C@H]1[C@H](C(=O)Nc2ccc(Br)c(F)c2)[C@@H]2C=C[C@H]1C21CC1 [Example 288, (5R)—N^5-(4-Bromo-3-fluorophenyl)-(6R)—N^6-(4-pyrrolidino-butyl)-(4S,7R)-[4,7-ethenylene-spiro[2.4]heptane]-5,6-dicarboxamide]
20 | 0.214 | 0.0016 | O=C(NCCCCN1CCCC1)[C@H]1[C@H](C(=O)Nc2ccc(Cl)nc2)[C@@H]2C=C[C@H]1C21CC1 [Example 289, (5R)—N^5-(2-Chloro-pyridin-5-yl)-(6R)—N^6-(4-pyrrolidino-butyl)-(4S,7R)-[4,7-ethenylene-spiro[2.4]heptane]-5,6-dicarboxamide]
21 | 2.37 | 0.059 | COc1ccc(NC(=O)[C@H]2[C@H](C(=O)NCCC(N)=O)[C@H]3CC[C@@H]2C32CC2)cc1 [Example 293, (5R)—N^5-(4-Methoxyphenyl)-(6R)—N^6-(3-amino-3-oxopropyl)-(4S,7R)-[4,7-ethylene-spiro[2.4]heptane]-5,6-dicarboxamide]
22 | 0.187 | 0.0029 | O=C(NCCCCN1CCCC1)[C@H]1[C@H](C(=O)Nc2ccc(Br)cn2)[C@@H]2C=C[C@H]1C21CC1 [Example 294, (5R)—N^5-(5-Bromo-pyridin-2-yl)-(6R)—N^6-(4-pyrrolidino-butyl)-(4S,7R)-[4,7-ethenylene-spiro[2.4]heptane]-5,6-dicarboxamide]
23 | 0.116 | 0.0013 | O=C(NCCCCN1CCCC1)[C@H]1[C@H](C(=O)Nc2ccc(Br)cc2F)[C@@H]2C=C[C@H]1C21CC1 [Example 295, (5R)—N^5-(4-Bromo-2-fluorophenyl)-(6R)—N^6-(4-pyrrolidino-butyl)-(4S,7R)-[4,7-ethenylene-spiro[2.4]heptane]-5,6-dicarboxamide]

From patent US8563714B2, “Bridged spiro [2.4] heptane derivatives as ALX receptor and/or FPRL2 agonists” (Actelion Pharmaceuticals Ltd., priority 2009, dated 2013)
